Experimental findings from publication PMC12598616, “Design and optimization of caspase-1-responsive fluorescent probes for pyroptosis imaging and anti-pyroptosis drug screening” (Chemical Science, 2025) are described below.

Experiment [1] deals with osteoarthritis mouse model (ACL transection). In words: In vivo fluorescence imaging of osteoarthritis. On the set-up: species or system C57BL/6J mouse. The conditions noted are these: injected into joint cavity; 0, 7, 14, 21 days post-surgery. On the procedure:
(§1) The decline in chondrocyte function plays a crucial role in the pathogenesis of OA. Inflammasome-mediated chondrocyte pyroptosis has been closely associated with matrix degradation and cartilage degeneration in OA.[38] To model OA in vitro, primary chondrocytes were stimulated with H2O2 (2 mM) for different durations, followed by staining with FPy1 (5 μM) and fluorescence imaging to monitor the progression of pyroptosis under oxidative stress. […] To better mimic the in vivo pathological features of OA, primary chondrocytes were also cultured as three-dimensional spheroids and stimulated with H2O2. […] Furthermore, we evaluated the capability of FPy1 to monitor pyroptosis progression at different stages of OA in a mouse model. […] The pathological manifestations in the corresponding tissues became more pronounced with longer modeling periods, consistent with the fluorescence imaging results obtained using FPy1. […]
Harvested rat discs were fixed in 4 % buffered paraformaldehyde for 24 hours, decalcified in 10 % ethylenediaminetetraacetic acid (EDTA, Solarbio, E8030) solution for 1 month, embedded in paraffin, and sectioned at a thickness of 5 μm. […] Stained sections were evaluated by three independent raters, blinded to the research protocol, and measurements were averaged for statistical analysis. […]
In vivo fluorescence imaging of intervertebral disc degeneration […]

Experiment [2] deals with Cas-1 in chondrocyte spheroids. In words: Imaging in chondrocyte 3D cell spheroids. Conditions: H2O2 2 mM 30, 60, 90 min; FPy1 5 μM; compared with 2D cultures. The format is cell-based. As to the method: as §1
Chondrocytes were isolated from articular cartilage and resuspended in 1mL DMEM/F12 medium containing 10 μM ITS-A. A total of […] were counted and transferred into centrifuge tubes. […]
The chondrocytes or 3D cell spheroids were seeded in dishes and cultured overnight. […] Fluorescence imaging was then performed with an excitation of 514 nm, and signals were […]

In the case of “–FLTDG– [FPy1, RhoB donor, hNR quencher]”, the “in vivo fluorescence signals in knee joints” value in experiment [1] is recorded as “gradually increasing as the modeling duration was extended”. In addition, the “fluorescence enhancement in chondrocyte spheroids” value in experiment [2] is “more pronounced fluorescence enhancement in chondrocyte spheroids than in two-dimensional cultures”.
